Experimental data taken from paper PMC10480608 (Heliyon, 2023).
Read-outs that look alike come from different tables or passages of the source.

Key:
[1] = test system: MCF-7 (human breast adenocarcinoma); experiment: MTT cytotoxicity assay, MCF-7; type: cell-based; conditions: read-out: IC50 ± SD, MCF7
[2] = test system: MDA-231 breast cancer cells; experiment: MTT cytotoxicity assay, MDA-231; type: cell-based, human
[3] = test system: HepG2 (hepatocellular carcinoma); experiment: MTT cytotoxicity assay, HepG2; type: cell-based, human; conditions: read-out: IC50 ± SD, HEPG-2
[4] = test system: DU145 prostate cancer cells; experiment: MTT cytotoxicity assay, DU145; type: cell-based, human
[5] = test system: normal human dermal/fibroblasts; experiment: MTT cytotoxicity assay, normal fibroblasts; type: cell-based; conditions: read-out: IC50 ± SD, Fibro dental, 72 h
[6] = test system: MCF-7 cell lines; experiment: Dose response study, growth rate; type: cell-based, human; conditions: MCF-7, treatment for 24 h, tested 1–300 μg/mL
[7] = test system: PC3 (human prostate carcinoma); experiment: MTT cytotoxicity assay, PC3; type: cell-based; conditions: 72 h, read-out: IC50 ± SD, PC-3
[8] = Homo sapiens, MDA-MB-231, read-out: IC50 ± SD, MDA-231
[9] = Homo sapiens, DU-145, read-out: IC50 ± SD, DU145

Row | SMILES | IC50 ([1]; Homo sapiens, MCF7, 72 h) [µM] | IC50 ([5]; Homo sapiens, Fibroblast) [µM] | IC50 [2, 8] [µM] | IC50 [4, 9] [µM] | further results
1 | N.N.[Cl][Pt][Cl] [Cisplatin, reference compound] |  |  |  |  | IC50 ([1]; Breast cancer cells, MTT, 72 h, mean ± SD): 14.6 ± 2.8 µM; IC50 ([2]; read-out: IC50 ± SD, MDA-231, Breast cancer cells, MTT, mean ± SD): 16.2 ± 1.6 µM; IC50 ([3]; Liver cancer cells, MTT, 72 h, mean ± SD): 9.64 ± 1.7 µM; IC50 ([4]; read-out: IC50 ± SD, DU145, Prostate cancer cells, MTT, mean ± SD): 8.5 ± 1.7 µM; IC50 ([5]; Normal cells, MTT, mean ± SD): > 100 µM
2 | Cc1nc([N+](=O)[O-])c(N2CCN(Cc3cn(Cc4cccc(F)c4)nn3)CC2)n1Cc1ccccc1 [Compound 9g, 1-(N1-benzyl-2-methyl-4-nitro-imidazole-5-yl)-4-((N1-(3-fluorobenzyl)-1H-1,2,3-triazol-4-yl)methyl)piperazine] | 2 ± 0.03 | > 500 |  |  | concentration range with cytostatic effect (GR values) [6]: 1 to 300 µg/mL; concentration range with cytotoxic effect (GR values) [6]: did not show cytotoxic effects
3 | Cc1ccc(Cn2cc(CN3CCN(c4c([N+](=O)[O-])nc(C)n4Cc4ccccc4)CC3)nn2)cc1 [Compound 9k, 1-(N1-benzyl-2-methyl-4-nitro-imidazole-5-yl)-4-((N1-(4-methylbenzyl)-1H-1,2,3-triazol-4-yl)methyl)piperazine] | 5 ± 2 | > 500 |  |  | concentration range with cytostatic effect (GR values) [6]: 37.5 to 1 μg/mL; concentration range with cytotoxic effect (GR values) [6]: 75 to 300 µg/mL
4 | Cc1nc([N+](=O)[O-])c(N2CCN(Cc3cn(CC(=O)c4ccc(Br)cc4)nn3)CC2)n1Cc1ccccc1 [Compound 10b, 2-(4-((4-(1-benzyl-2-methyl-4-nitro-1H-imidazole-5-yl)piperazin-1-yl)methyl)-1H-1,2,3-triazol-1-yl)-1-(4-bromophenyl)ethanone] | 372 ± 30 |  | 1.33 ± 0.9 | 8.95 ± 1.7 | 
5 | COc1cccc(C(=O)Cn2cc(CN3CCN(c4c([N+](=O)[O-])nc(C)n4Cc4ccccc4)CC3)nn2)c1 [Compound 10c, 2-(4-((4-(1-benzyl-2-methyl-4-nitro-1H-imidazole-5-yl)piperazin-1-yl)methyl)-1H-1,2,3-triazol-1-yl)-1-(3-methoxyphenyl)ethanone] | 585 ± 37 | > 500 | 1.38 ± 1.3 | 15 ± 1.6 | 
6 | Cc1nc([N+](=O)[O-])c(N2CCN(Cc3cn(-c4ccc5c(c4)OCO5)nn3)CC2)n1Cc1ccccc1 [Compound 11p, 1-((N1-(benzo[d] [1,3]dioxol-5-yl)-1H-1,2,3-triazol-4-yl)methyl)-4-(N1-benzyl-2-methyl-4-nitro-1H-imidazole-5-yl) piperazine] | 52 ± 30 |  | 11.7 ± 1.6 | 0.803 ± 0.04 | 
7 | COc1cccc2c1C(=O)c1c(O)c3c(c(O)c1C2=O)C[C@@](O)(C(=O)CO)C[C@@H]3O[C@H]1C[C@H](N)[C@H](O)[C@H](C)O1 [Doxorubicin, reference compound] | 0.64 ± 0.04 | > 100 | 2.3 ± 1.3 | 0.66 ± 0.04 | IC50 ([3]; Homo sapiens, HepG2, 72 h): 0.61 ± 0.05 µM; IC50 [7]: 0.62 ± 0.06 µM
